Measured values published in patent US20030082112A1, “Composition” (Unilever Home & Personal Care USA, Division of Conopco, Inc., priority 2001, published 2003).

Assay: Storage stability of the alkyl hydroxybenzoate in the alkaline chalk oral care formulation
Assay type: physicochemical
Conditions: 37° C. for two months; 1.0 w/w % in fine ground natural chalk formulation of the Example
Procedure: The following formulation is a composition according to the invention and is made by ordinary methods known to a skilled person.
This octyl parahydroxy benzoic acid in this formulation was stable at 37° C. for two months.

## CCCCCCCCOC(=O)c1ccc(O)cc1 [octyl parahydroxy benzoic acid]
  stability in the formulation: stable
